# From patent US10166229B2, “Compounds and methods for the treatment of cancer” (The Board of Trustees of the University of Illinois, priority 2005, dated 2019)
# pEC50, pIC50: −log10 of the molar value. Where “and” joins values, the source holds several entries; their conditions need not be identical. Identical values can stand only once. Entries after “also recorded” stand apart in the source; their conditions may differ. Like-named read-outs stand apart in the source and are kept apart here.
# Assays:
# [1] = target: procaspase-7 (Homo sapiens (Human), UniProt P55210); settings: read-out: EC50 for activation of procaspase-7
# [2] = system: NCI-H226 (lung cancer) cells injected i.v.; test: NCI-H226 i.v. injection lung model, oral gavage; type: in vivo, mice; settings: 100 mg/kg oral gavage days 1-4 and 7-11, 28 days
# [3] = system: primary colon cancer cells; test: Cell death in primary cancerous cells from resected colon tumors; type: cell-based, human
# [4] = system: MCF-7, breast cancer cells; test: Cell death IC50 in MCF-7; settings: Homo sapiens, MCF7, read-out: IC50 for death induction, MCF-7
# Description: Determination of IC50 values in various cell lines. 50 μL of media containing various concentrations of PAC-1 or etoposide was added to each well of a 96-well plate except control wells, which contained only DMSO. […] The plates were then incubated at 37° C. for approximately one hour until the colored product formed.
# [5] = target: T1, procaspase-3 (Homo sapiens (Human), UniProt P42574); test: Effect of pH on PAC-1 activation of procaspase-3; type: biochemical; settings: low pH values
# Description: The plate was then incubated for 12 hours at 37° C. 10 μL of a 2 mM solution of Ac-DEVD-pNA (SEQ ID NO: 28) in caspase assay buffer was then added to each well. […] The slope of the linear portion for each well was determined and the fold increase in activation for each pH value was calculated.
# [6] = system: white blood cells from bone marrow, Hs888Lu, MCF-10A, Hs578Bst; test: Cell death in four non-cancerous cell types; type: cell-based
# [7] = target: T1, procaspase-3; test: In vitro activation of purified procaspase-3 (activation curves, Ac-DEVD-pNA); type: biochemical; settings: for pEC50: read-out: EC50 for activation of procaspase-3
# Description: Activation curves. […] The plate was read every 2 minutes at 405 nm for 2 hours in a Spectra Max Plus 384 well plate reader. The slope of the linear portion for each well was determined and the fold increase in activation from non-treated control wells was calculated. […]
# [8] = system: HL-60 cells; test: Condensed chromatin staining (Hoechst); type: cell-based, human; settings: HL-60, 20 h, 100 μM
# Description: The cells were then washed in PBS buffer followed by the addition of ice-cold 100% ethanol. The cells were fixed overnight at 4° C. Fixed cells were incubated with 2 μg/mL Hoechst-33258 for 30 minutes at room temperature. A drop of cells was then added to a microscope slide and covered with a No. 1 thickness coverslip.
# [9] = system: cells from adjacent non-cancerous tissue; test: Cell death in cells from adjacent non-cancerous colon tissue; type: cell-based, human
# From the text: To test this direct, small molecule-mediated procaspase-3 activation strategy in clinical isolates of cancer, we obtained freshly resected colon tumors (together with adjacent non-cancerous tissue) from 18 patients from Carle Foundation Hospital (Urbana, Ill.).
# [10] = Plasma PAC-1 content after pellet implantation; type: in vivo, mice; settings: female, athymic BALB/c (nude), mouse, other: implantation of a pellet of PAC-1 and cholesterol, 5 mg pellet, after the 54 day experiment
# Description: PAC-1 was evaluated in a mouse xenograft model using a slow release mode of drug delivery. In this model, subcutaneous tumors were formed in ovariectomized female athymic BALB/c (nude) mice using the ACHN (renal cancer) cell line. […] Tumor sizes were monitored for about 8 weeks. […] After the mice were sacrificed, plasma samples were taken from each mouse, and the PAC-1 content of each was analyzed.
# [11] = system: NCI-H226 (lung cancer) xenograft tumors; test: NCI-H226 subcutaneous xenograft, oral gavage; type: in vivo, mice; settings: oral gavage once a day for 21 days, 50 or 100 mg/kg
# [12] = system: HL-60 cells; test: Cell death inhibition by z-vad-fmk; type: cell-based, human
# Description: Cell death inhibition by z-vad-fmk. 100 μL HL-60 cells at a concentration of 5×10^5 cells/mL were added to the wells of a 96-well plate. The cells were then incubated for 1 hour in the presence or absence of 100 μM z-vad-fmk, a cell-permeable pan caspase inhibitor. […] The plates were incubated at 37° C. for approximately 45 minutes until the colored product formed.
# [13] = system: white blood cells derived from the bone marrow of a healthy human donor; test: Cell death in normal white blood cells; type: cell-based; settings: relative to cancer cell lines
# [14] = target: T1, procaspase-3; test: Western blot of in vitro procaspase-3 activation by DX compounds; type: biochemical; settings: 50 micromolar compound, about 35 nanomolar procaspase-3, 8 hr
# Description: Certain compounds were also tested for the ability to effect in vitro activation of procaspase-3.
# [15] = system: mitochondrial membrane depolarization in HL-60 cells; test: Mitochondrial membrane potential (JC-9) in HL-60; type: cell-based, human
# Description: The cells were incubated for various times, and the cells then were harvested by centrifugation. The cells were washed in PBS and resuspended in 1 mL of PBS. 10 μg of the JC-9 dye was added and the cells were incubated at room temperature for 10 minutes protected from light. The cells were then washed two times with PBS and brought up in 500 μL PBS. The fluorescent intensity of each cell was determined by flow cytometry at 525 nm (green channel) and 675 nm (red channel). 50,000 cells were analyzed in each experiment. The shift in the red channel was then used to determine the amount of mitochondrial membrane depolarization.
# [16] = system: HL-60 cells; test: Apoptosis induction assay in HL-60 cells, 72 hrs (Table 6); type: cell-based; settings: Homo sapiens
# Description: Compounds DX1-DX17 were tested using the HL-60 cell line for the ability to effect apoptosis, and IC50 values were determined. Activity levels of compounds from assays of 72 hrs duration with HL-60 cells are shown in Table 6 and along with structures in FIG. 12.
# [17] = system: caspase-3 like activity in HL-60 cells; test: Caspase-3 like activity in HL-60 cells; type: cell-based, human; settings: HL-60, 100 μM PAC-1
# Description: In vivo determination of caspase-3 like activity. The amount of caspase-3 like protease activity was determined by the amount of Ac-DEVD-pNA (N-acetyl-ASP-Glu-Val-Asp-p-nitroanilide) (SEQ ID NO: 28) cleaved per minute by cell lysates. […] 50 μL of HL-60 cells at a concentration of 5×10^6 cells/mL were added to the plate and incubated for various times. After the incubation period, the plate was spun at 1000×g for 5 minutes to pellet the cells. The cells were then washed with 100 μL of PBS and resuspended in 150 μL of ice cold Caspase Assay Buffer. Each well was then sonicated to lyse the cells. 90 μL of cell lysate was transferred from each well into a new plate. Ac-DEVD-pNA (SEQ ID NO: 28) was added into each well to give a final concentration of 200 μM. […] The slope of the linear portion for each well was determined and the amount of Ac-DEVD-pNA (SEQ ID NO: 28) cleaved per minute was calculated.
# T1 sequence (P42574 whole entry): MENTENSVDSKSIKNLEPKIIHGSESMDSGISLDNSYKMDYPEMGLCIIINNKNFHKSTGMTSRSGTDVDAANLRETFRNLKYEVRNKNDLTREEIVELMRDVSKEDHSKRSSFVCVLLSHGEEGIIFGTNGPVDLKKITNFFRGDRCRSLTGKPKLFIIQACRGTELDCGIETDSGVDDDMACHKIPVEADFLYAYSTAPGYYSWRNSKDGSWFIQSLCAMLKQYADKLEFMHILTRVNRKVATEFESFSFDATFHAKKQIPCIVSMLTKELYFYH
# Chain of procaspase-7 (P55210 whole entry): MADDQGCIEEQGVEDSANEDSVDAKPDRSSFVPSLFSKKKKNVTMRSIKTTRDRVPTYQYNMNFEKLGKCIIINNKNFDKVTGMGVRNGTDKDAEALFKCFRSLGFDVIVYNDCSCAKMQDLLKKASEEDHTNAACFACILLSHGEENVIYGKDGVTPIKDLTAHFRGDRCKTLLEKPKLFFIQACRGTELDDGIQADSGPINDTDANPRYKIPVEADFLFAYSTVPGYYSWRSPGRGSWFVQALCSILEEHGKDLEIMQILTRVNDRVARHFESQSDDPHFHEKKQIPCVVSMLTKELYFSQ
smiles,measurement,setting,value
C=CCc1cccc(/C=N/NC(=O)CN2CCN(Cc3ccccc3)CC2)c1O [PAC-1],pEC50,[1],5.35
same,"lung tumor mass, NCI-H226 i.v. injection model",[2],clear difference; also recorded: almost no visible gray matter
same,sensitivity of cells in cancerous tissue in comparison with normal tissue,"[3]; FIG. 6B, Patient 3",greater than 80 fold
same,pIC50,"[3]; Homo sapiens, read-out: IC50 in cancer cells from patient 17, patient 17",8.15
same,sensitivity of cancer cells versus cells from adjacent normal tissue,[3]; patient 17,over 700 fold
same,pIC50,[4],< 4.12
same,effect of PAC-1 on procaspase-3 at low pH,[5],abolished
same,pIC50,[6],5.07 to 5.49
same,procaspase-3 activation in vitro (in words),[7],activate procaspase-3 in vitro
same,Activity (direct activation of purified procaspase-3 in vitro),[7]; Table 2,Active
same,pEC50,[7]; in vitro,~6.66
same,pEC50,[7]; wild type procaspase-3 (DDD),6.66
same,chromatin condensation,[8],significant chromatin condensation
same,pIC50,"[9]; Homo sapiens, read-out: PAC-1, IC50, Normal (adjacent non-cancerous tissue), per patient, 18 patients",5.00 to 5.30
same,pIC50,"[9]; read-out: PAC-1, IC50, Normal (adjacent non-cancerous tissue), per patient, 18 patients",5.16 and 5.20 and 5.13 and 5.25 and 5.18 and 5.00 and 5.23 and 5.26 and 5.12 and 5.22 and 5.30 and 5.29 and 5.19 and 5.17 and 5.01 and 5.02
same,concentration at 54 day,[10],5 nM
same,"tumor growth, NCI-H226 xenograft",[11],significantly retards tumor growth in a dose-dependent manner
same,toxicity in the presence of caspase inhibitor z-VAD-fmk,[12],abolished
same,potency/toxicity in normal white blood cells,[13],comparatively less toxic; also recorded: markedly less potent
same,in vitro activation of procaspase-3 (Western blot) relative to control,[14],substantial activity levels
same,mitochondrial membrane depolarization,[15],causes mitochondrial membrane depolarization
same,pIC50,[16],5.55
same,time to 50% activation of caspase-3-like activity,[17],over 2 hours
